Measurements published in ChEMBL document CHEMBL3045329, “Synthesis, biological evaluation, and pharmacokinetic profiling of benzophenone derivatives as tumor necrosis factor-alpha and interleukin-6 inhibitors” (Med Chem Res, 2012).

Assays:
THP-1 [1] = assay: Anti-inflammatory activity in Homo sapiens (human) PMA-stimulated THP1 cells assessed as inhibition of LPS-induced TNFalpha production at 10 uM incubated for 30 min prior to LPS-challenge measured after 24 hr by ELISA; format: functional; conditions: values are per cent of control
[2] = Cytotoxicity against Homo sapiens (human) […] at 10 uM after 24 hr; format: cell-based; conditions: cck8, 24 h
THP-1 [3] = assay: Anti-inflammatory activity in Homo sapiens (human) PMA-stimulated THP1 cells assessed as inhibition of LPS-induced IL6 production at 10 uM incubated for 30 min prior to LPS-challenge measured after 24 hr by ELISA; format: functional
THP-1 [4] = assay: Anti-inflammatory activity in Homo sapiens (human) PMA-stimulated THP1 cells assessed as inhibition of LPS-induced IL6 production incubated for 30 min prior to LPS-challenge measured after 24 hr by ELISA; format: functional, cell-based
[5] = Cytotoxicity against Homo sapiens (human) […] cells at 1 uM after 24 hr; format: cell-based
THP-1 [6] = assay: Anti-inflammatory activity in Homo sapiens (human) PMA-stimulated THP1 cells assessed as inhibition of LPS-induced TNFalpha production at 1 uM incubated for 30 min prior to LPS-challenge measured after 24 hr by ELISA; format: functional
THP-1 [7] = assay: Anti-inflammatory activity in Homo sapiens (human) PMA-stimulated THP1 cells assessed as inhibition of LPS-induced IL6 production at 1 uM incubated for 30 min prior to LPS-challenge measured after 24 hr by ELISA; format: functional

Row | IC50 (THP-1 [4]) | Structure (SMILES) | response, % of control at 10 µM (THP-1 [1]) | Activity [2] | inhibition at 10 µM (THP-1 [3]) | Activity [5] | inhibition at 1 µM (THP-1 [6]) | inhibition at 1 µM (THP-1 [7])
1 | – | COc1cc(OC)c(C(=O)c2ccccc2)c(O)c1Br | 19% | 38% | 80% | – | – | –
2 | – | COc1cc(OC)c(C(=O)c2ccccc2F)c(O)c1Br | 0% | 46% | 76% | – | – | –
3 | 0.19 µM | COc1cc(OC)c(C(=O)c2ccc(F)cc2)c(O)c1Br | 0% | 19% | 63% | – | – | –
4 | – | COc1cc(OC)c(C(=O)c2ccccc2C)c(O)c1Br | 0% | 40% | 70% | – | – | –
5 | – | COc1cc(OC)c(C(=O)c2cccc(C)c2)c(O)c1Br | 4% | 32% | 76% | – | – | –
6 | – | COc1ccc(C(=O)c2c(OC)cc(OC)c(Br)c2O)cc1 | 6% | 34% | 82% | – | – | –
7 | – | COc1cc(OC)c(C(=O)c2cccc(Cl)c2)c(O)c1Br | 10% | 33% | 78% | – | – | –
8 | – | C[C@@H]1C[C@H]2[C@@H]3CCC4=CC(=O)C=C[C@]4(C)[C@@]3(F)[C@@H](O)C[C@]2(C)[C@@]1(O)C(=O)CO [DEXAMETHASONE] | – | – | – | 0% | 72% | 94%
